Measured values published in ChEMBL document CHEMBL1201862, “PubChem BioAssay data set” (2004).
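Growth conditions: 96-well plates. Treatment: test compound, 48 hours, 5 concentrations. Analysis: linear interpolation between bracketing concentrations; unreached endpoints set to highest concentration. The concentration for 50% growth inhibition is given as GI50.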 Calls of active or inactive are those of the source. No stated cut-off is given here; in the data, active = GI50 up to about 1.1 µM and inactive = higher.

Legend:
Assay in all cases: NCI-60 cell line screen, 48 h
HOP-18 = tested on: HOP-18
T47D = tested on: T47D
MDA-MB-435 = tested on: MDA-MB-435
MDA-MB-231 = tested on: MDA-MB-231
DU-145 = tested on: DU-145
786-0 = tested on: 786-0
Hs-578T = tested on: Hs-578T
BT-549 = tested on: BT-549
RXF 631 = tested on: RXF 631

Measured: GI50

O=C1ON(Cc2ccccc2)C(c2ccccc2)N1c1ccccc1 (stereo not given)
inactive: HOP-18 > 100 µM

O=NN1C(c2ccccc2)CCCC1c1ccccc1 (stereo not given)
inactive: HOP-18 > 77.8 µM

CCOC(=O)C1=C(C)N(C2OC(COC(=O)c3ccccc3)C(OC(=O)c3ccccc3)C2OC(=O)c2ccccc2)C(=S)NC1c1ccccc1 (stereo not given)
inactive: HOP-18 16.7 µM

Cc1ccc(-c2cc(-c3ccco3)c(C#N)c(=O)n2C2OC(CO)C(O)C(O)C2O)cc1 (stereo not given)
inactive: HOP-18 > 100 µM

O=C(CC(C(=O)c1cccs1)c1ccc2c(c1)OCO2)c1ccc(Br)cc1 (stereo not given)
inactive: T47D > 100 µM | MDA-MB-435 > 100 µM | MDA-MB-231 > 100 µM | DU-145 > 100 µM | 786-0 > 100 µM

COc1ccc(-c2cc(-c3cc(OC)c(OC)c(OC)c3)cc(-c3cc4ccccc4oc3=O)n2)cc1
inactive: T47D 7.19 µM | MDA-MB-435 16.7 µM | MDA-MB-231 2.3 µM | Hs-578T 2.38 µM | DU-145 9.53 µM | BT-549 8.79 µM | 786-0 2.16 µM

O=C(/C=C/c1cccc2ccccc12)c1ccccc1Cl
inactive: RXF 631 18.1 µM | HOP-18 17.1 µM | 786-0 14 µM

Clc1cc2c(c(CSC3=NCN(CC4CC4)CN3)c1)OCOC2
inactive: T47D 12.9 µM | MDA-MB-435 21.8 µM | MDA-MB-231 19.5 µM | Hs-578T 33.7 µM | DU-145 26.1 µM | BT-549 19.1 µM | 786-0 19.8 µM

Cc1ccc(NC(=O)CC(=O)n2nc(-c3ccccc3)c(/N=N/c3ccccc3Cl)c2-c2ccccc2)cc1
inactive: RXF 631 96.2 µM | HOP-18 38.1 µM | 786-0 32.6 µM

COc1ccc2c(c1)CCN=C2Cc1cc(OC)c(OC)cc1CCCl
inactive: T47D 53.1 µM | MDA-MB-435 52 µM | MDA-MB-231 32.1 µM | Hs-578T 22.1 µM | DU-145 > 100 µM | BT-549 > 100 µM

O=C1C=CC2=[N+]([O-])C(c3ccccc3)(c3ccccc3)/C(=N\c3ccccc3)C2=C1
inactive: RXF 631 3.05 µM | HOP-18 2.92 µM

N#CC1(C#N)C(=O)c2ccncc2C1=O
inactive: T47D > 100 µM | MDA-MB-435 > 100 µM | MDA-MB-231 > 100 µM | Hs-578T > 100 µM | DU-145 > 100 µM | BT-549 > 100 µM

CN1NC(c2ccccc2)=C(C#N)C(=O)CC1c1ccc(Br)cc1 (stereo not given)
inactive: HOP-18 17.9 µM

COc1cc(/C=C/C(=O)C(C)(C)C)cc(OC)c1OC
inactive: HOP-18 > 100 µM | 786-0 53.7 µM

COC(=O)C12CC3CC(CC(C(=O)O)(C3)C1)C2
inactive: RXF 631 > 100 µM | HOP-18 > 100 µM | 786-0 > 100 µM

C=C(C)[C@@H]1CCC2=C[C@H](CC(C)=CC3=CC(C)=C(O3)[C@@H]1OC)OC2=O
inactive: T47D > 100 µM | MDA-MB-435 > 100 µM | MDA-MB-231 29.5 µM | Hs-578T 33.6 µM | DU-145 > 100 µM | BT-549 51.6 µM

CCOC(=O)c1ccc(N(CCOS(=O)(=O)c2ccc(C)cc2)CCOS(=O)(=O)c2ccc(C)cc2)cc1
inactive: MDA-MB-435 > 100 µM | MDA-MB-231 27.2 µM | Hs-578T > 100 µM | BT-549 > 100 µM

Cc1ccc(Nc2n[nH]c(NS(=O)(=O)c3cc(C(=O)Nc4ccc(Cl)cc4)c(Cl)cc3S)n2)cc1
inactive: T47D 63.2 µM | MDA-MB-435 > 100 µM | MDA-MB-231 > 100 µM | Hs-578T 84.9 µM | DU-145 > 100 µM | BT-549 > 100 µM

CC(=O)O[C@]12CCCCCC1C1(O)C(O)CCCC[C@H]12 (stereo not given in full)
inactive: 786-0 > 100 µM

O=C(O)Cc1cccc2c1Oc1ccccc1S2
inactive: 786-0 > 100 µM

C[C@]12CCC(=O)C(O)=C1CC[C@@H]1[C@@H]2CC[C@]2(C)C(=O)CC[C@@H]12 [FORMESTANE]
inactive: T47D > 100 µM | RXF 631 > 100 µM | MDA-MB-435 > 100 µM | MDA-MB-231 > 100 µM | Hs-578T > 100 µM | DU-145 > 100 µM | BT-549 > 100 µM | 786-0 > 100 µM
